# Data from patent US20070208087A1, “Compounds, compositions and methods for the treatment of inflammatory diseases” (priority 2001, published 2007).
# Values joined by “and” are separate entries in the source; they are usually repeats but may differ in a detail not shown here. Equal values may be shown once. Read-outs that look alike come from different tables or passages of the source.
# Columns and labels:
# Assay type in all cases: cell-based
# [1] = system: TNF-α release from microglia; test: TNF-α release from LPS/IFNγ stimulated microglia, TNF-α ELISA (Example 11); details: 50 uM compound, TNF-α release, 10 ug LPS and 10 ng IFNγ, 24 hours
# Summary of the method: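 Microglia pretreated 1 h with 50 μM bis-/tris-dihydroxyaryl compound, then stimulated with 10 μg/ml LPS + 10 ng/ml IFNγ for 24 h. Medium sampled, stored at −80°, diluted 1:50 and TNF-α measured by ELISA.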
# [2] = system: Microglial cells; test: Dose response inhibition of NO release from microglia, 0.5-500 μM (Example 9); details: for inhibition at 0.5 µM / inhibition at 1 µM / inhibition at 100 µM / inhibition at 250 µM / inhibition at 500 µM / μM NO release / μM NO release (No LPS average subtracted) / % inhibition: 48 hours; for μM NO release / μM NO release (No LPS average subtracted): 3 replicates
# Protocol: This experiment was designed to determine the dose response inhibition of NO release from microglia by bis- and tris-dihydroxyaryl compounds when stimulated with LPS/IFNγ. Earlier experiments have demonostrated that some bis- and tris-dihydroxyaryl compounds are good inhibitors of NO release from microglia. This experiment is designed to determine a dose response for various effective bis- and tris-dihydroxyaryl compounds. Microglial cells were plated into 96 well plates at 1×10^5 cells/ml. At 48 hours, media was exchanged for media containing 10 ng/ml IFNγ and 10 μg/ml LPS and the following compounds 3, 4, 21, 26 and the positive control L-NAME. The doses tested were: 0.5 μM, 1.0 μM, 5.0 μM, 10 μM, 25 μM, 50 μM, 100 μM, 250 μM, and 500 μM. Nitric oxide release was measured after 48 hours using the Griess reaction.
# [3] = system: microglia; test: Ranking of NO release inhibition (Example 12); details: Microglia, ranking table
# From the text: The bis- and tris-dihydroxyaryl compounds were ranked in order of effectiveness for the inhibition of NO release as set out in Table 8.
structure (smiles),measurement,setting,value
"Oc1ccc(CNCc2ccc(O)c(O)c2)cc1O [Compound 73, bis(3,4-dihydroxybenzyl)amine]",% inhibition,"[1]; individual replicates, 50 µM",−51.44% and −31.47% and −54.79%
same,inhibition at 50 µM,"[1]; Microglia, 24 h, read-out: Avg % Inhibition",-45.9%
same,inhibition at 0.5 µM,"[2]; Microglia, 48 h, dose 0.5 μM, NO release, LPS/IFNγ, read-out: Avg % Inhibition",12.7%
same,inhibition at 0.5 µM,"[2]; Microglia, 48 h, dose 0.5 μM, individual replicates, NO release, LPS/IFNγ, read-out: % inhibition",15.5%
same,inhibition at 1 µM,"[2]; Microglia, 48 h, dose 1 μM, NO release, LPS/IFNγ, read-out: Avg % Inhibition",16.5%
same,inhibition at 1 µM,"[2]; Microglia, 48 h, dose 1 μM, individual replicates, NO release, LPS/IFNγ, read-out: % inhibition",17.7%
same,inhibition at 5 µM,"[2]; Microglia, 48 h, dose 5 μM, NO release, LPS/IFNγ",1.5%
same,inhibition at 10 µM,"[2]; Microglia, 48 h, dose 10 μM, NO release, LPS/IFNγ",1.75%
same,inhibition at 25 µM,"[2]; Microglia, 48 h, dose 25 μM, NO release, LPS/IFNγ",0.75%
same,inhibition at 50 µM,"[2]; Microglia, 48 h, dose 50 μM, NO release, LPS/IFNγ",0.25%
same,inhibition at 100 µM,"[2]; Microglia, 48 h, dose 100 μM, NO release, LPS/IFNγ, read-out: Avg % Inhibition",33%
same,inhibition at 100 µM,"[2]; Microglia, 48 h, dose 100 μM, individual replicates, NO release, LPS/IFNγ, read-out: % inhibition",31.2%
same,inhibition at 250 µM,"[2]; Microglia, 48 h, dose 250 μM, NO release, LPS/IFNγ, read-out: Avg % Inhibition",45.3%
same,inhibition at 250 µM,"[2]; Microglia, 48 h, dose 250 μM, individual replicates, NO release, LPS/IFNγ, read-out: % inhibition",46.7%
same,inhibition at 500 µM,"[2]; Microglia, 48 h, dose 500 μM, NO release, LPS/IFNγ, read-out: Avg % Inhibition",72.3%
same,inhibition at 500 µM,"[2]; Microglia, 48 h, dose 500 μM, individual replicates, NO release, LPS/IFNγ, read-out: % inhibition",72.6%
same,inhibition at 500 µM,"[2]; Microglia, 48 h, highest concentration tested (500 μM), read-out: inhibited NO release by",72%
same,μM NO release,"[2]; dose 0.5 μM, LPS/IFNγ",17.361 µM and 18.194 µM and 18.056 µM
same,μM NO release (No LPS average subtracted),"[2]; dose 0.5 μM, LPS/IFNγ",15.66 µM and 16.49 µM and 16.36 µM
same,% inhibition,"[2]; dose 0.5 μM, individual replicates, NO release, LPS/IFNγ",10.99% and 11.74%
same,μM NO release,"[2]; dose 1 μM, LPS/IFNγ",16.944 µM and 16.806 µM and 17.778 µM
same,μM NO release (No LPS average subtracted),"[2]; dose 1 μM, LPS/IFNγ",15.25 µM and 15.11 µM and 16.08 µM
same,% inhibition,"[2]; dose 1 μM, individual replicates, NO release, LPS/IFNγ",18.49% and 13.25%
same,μM NO release,"[2]; dose 5 μM, LPS/IFNγ",20.000 µM and 19.583 µM and 20.278 µM
same,μM NO release (No LPS average subtracted),"[2]; dose 5 μM, LPS/IFNγ",18.30 µM and 17.88 µM and 18.58 µM
same,% inhibition,"[2]; dose 5 μM, individual replicates, NO release, LPS/IFNγ",1.25% and 3.50% and −0.25%
same,μM NO release,"[2]; dose 10 μM, LPS/IFNγ",18.889 μM and 20.417 μM (2×)
same,μM NO release (No LPS average subtracted),"[2]; dose 10 μM, LPS/IFNγ",17.19 μM and 18.72 μM (2×)
same,% inhibition,"[2]; dose 10 μM, individual replicates, NO release, LPS/IFNγ",7.24% and −1.00% (2×)
same,μM NO release,"[2]; dose 25 μM, LPS/IFNγ",19.167 µM and 20.139 µM and 20.972 µM
same,μM NO release (No LPS average subtracted),"[2]; dose 25 μM, LPS/IFNγ",17.47 µM and 18.44 µM and 19.27 µM
same,% inhibition,"[2]; dose 25 μM, individual replicates, NO release, LPS/IFNγ",5.75% and 0.50% and −4.00%
same,μM NO release,"[2]; dose 50 μM, LPS/IFNγ",19.444 µM and 19.861 µM and 21.250 µM
same,μM NO release (No LPS average subtracted),"[2]; dose 50 μM, LPS/IFNγ",17.74 µM and 18.16 µM and 19.55 µM
same,% inhibition,"[2]; dose 50 μM, individual replicates, NO release, LPS/IFNγ",4.25% and 2.00% and −5.50%
same,μM NO release,"[2]; dose 100 μM, LPS/IFNγ",14.444 µM and 13.056 µM and 14.861 µM
same,μM NO release (No LPS average subtracted),"[2]; dose 100 μM, LPS/IFNγ",12.74 µM and 11.36 µM and 13.16 µM
same,% inhibition,"[2]; dose 100 μM, individual replicates, NO release, LPS/IFNγ",38.72% and 28.98%
same,μM NO release,"[2]; dose 250 μM, LPS/IFNγ",11.569 µM and 10.904 µM and 13.056 µM
same,μM NO release (No LPS average subtracted),"[2]; dose 250 μM, LPS/IFNγ",9.87 µM and 9.20 µM and 11.36 µM
same,% inhibition,"[2]; dose 250 μM, individual replicates, NO release, LPS/IFNγ",50.33% and 38.72%
same,μM NO release,"[2]; dose 500 μM, LPS/IFNγ",6.782 µM and 6.516 µM and 7.181 µM
same,μM NO release (No LPS average subtracted),"[2]; dose 500 μM, LPS/IFNγ",5.08 µM and 4.82 µM and 5.48 µM
same,% inhibition,"[2]; dose 500 μM, individual replicates, NO release, LPS/IFNγ",74.01% and 70.42%
same,inhibition at 50 µM,[3],2%
